For this assay, the target named is T1, NMDA receptor glycine site (Rattus norvegicus, UniProt P35439).
T1 construct: tissue Analytical Biological Services Inc; host or cells: rat brain membranes (cerebral cortex and hippocampus, male Sprague Dawley rats)
As to the kind of experiment: Test A: Inhibition of binding of [3H]-MDL105,519. The following applies: inhibition of 1.2 nM [3H]MDL105,519 binding to brain membranes; table does not say rat or human membranes. An excerpt: Test A: Inhibition of Binding of [^3H]-MDL105,519:
Binding of compounds to the NMDA receptor glycine site may be assessed by measuring the ability of test compounds to inhibit the binding of tritiated MDL105,519 to brain membranes bearing the receptor.
Briefly, fresh brain tissue including cerebral cortex and hippocampus from male Sprague Dawley rats was homogenized in 0.32 M sucrose and centrifuged at low speed to separate cellular membranes from other cellular components. The membranes were then washed 3 times using deionized water, followed by treatment with 0.04% Triton X-100. Finally, membranes were washed six times in 50 mM Tris citrate buffer, pH 7.4, and frozen at −80° C. until use.
[^3H]MDL105,519 (72 Ci/mmol) was purchased from Amersham. Cold MDL105,519 was purchased from Sigma/RBI. […] On the day of the experiment, brain membranes were thawed at room temperature and suspended in 50 mM tris acetate buffer, pH 7.4 (“TAB”). Seventy-five micro grams per milliliter protein (by using the BioRad dye) were used for competition binding. The experiments were carried out using 96-well plates. […] Non specific binding was determined by using 100 μM of unlabeled MDL105,519. […] After incubation, unbound [^3H]MDL105,519 was removed by filtration onto GF/B Unifilter plates using a Packard harvester. Filters were washed four times with ice cold TAB (total of 1.2 mL buffer). The plates were dried overnight at room temperature and bound radioactivity was measured on a Packard TopCount after the addition of 45 μL per well of the MICROSCINT O.
Human Brain Membranes: Human brain membranes were obtained from Analytical Biological Services Inc., and assays were performed as described for rat membranes.
Data analysis: Data was analyzed using a Microsoft Excel spreadsheet and GraphPad Prizm software and potency of compounds is expressed as the Ki (nM).
As a reminder, the Ki is a measure of affinity in units of concentration, obtained from inhibition or displacement. Higher therefore signals a looser hold on the target. In the case of `COc1ccc(Cn2nc(O)c3[nH]c4cc(Cl)ccc4c(=O)c3c2=O)cc1OC(=O)N1CCOCC1` [Ex. 16, Morpholine-4-carboxylic acid 5-(7-chloro-4-hydroxy-1,10-dioxo-5,10-dihydro-1H-pyridazino[4,5-b]quinolin-2-ylmethyl)-2-methoxy-phenyl ester], the affinity, expressed as Ki, was 86.6 nM.
To `Cc1cc(Cn2nc(O)c3[nH]c4cc(Cl)ccc4c(=O)c3c2=O)ccc1OC(=O)N1CCOCC1` [Ex. 12, Morpholine-4-carboxylic acid 4-(7-chloro-4-hydroxy-1,10-dioxo-5,10-dihydro-1H-pyridazino[4,5-b]quinolin-2-ylmethyl)-2-methyl-phenyl ester] belongs 267 nM; to `COc1ccc(Cn2nc(O)c3[nH]c4cc(Cl)ccc4c(=O)c3c2=O)cc1OC(=O)N(C)C` [Ex. 14, Dimethyl-carbamic acid 5-(7-chloro-4-hydroxy-1,10-dioxo-5,10-dihydro-1H-pyridazino[4,5-b]quinolin-2-ylmethyl)-2-methoxy-phenyl ester], 165 nM.
To `Cc1cc(Cn2nc(O)c3[nH]c4cc(Cl)ccc4c(=O)c3c2=O)ccc1OC(=O)N(C)c1ccccc1` [Ex. 13, Methyl-phenyl-carbamic acid 4-(7-chloro-4-hydroxy-1,10-dioxo-5,10-dihydro-1H-pyridazino[4,5-b]quinolin-2-ylmethyl)-2-methyl-phenyl ester] belongs 59 nM.

Source of the values: patent publication US20050227977A1, “Substituted 1,2,5,10-tetrahydropyridazino [4,5-b]quinoline-1,10-dione compounds and methods for the treatment of pain” (AstraZeneca AB, priority 1999, published 2005).
